Laboratory results published in ChEMBL document CHEMBL2046369, “Self-calibrating viscosity probes: design and subcellular localization” (Bioorg Med Chem, 2012).

Experiments:
[1] = Drug uptake in human T24 cell cytoplasm at 2 uM after 1 hr by Dil-C28 dye staining-based inverted microscopic analysis; format: ADME; settings: t-24, 1 h
[2] = Drug uptake in human T24 cell cytoskeleton at 2 uM after 1 hr by Dil-C28 dye staining-based inverted microscopic analysis; format: ADME; settings: t-24, 1 h

## COc1ccc2cc(C(=O)NCCOCCOCCOC(=O)/C(C#N)=C/c3ccc(N4CCCCC4)s3)c(=O)oc2c1
[1]
  Drug uptake: Active

## CCCCCCN(CCCCCC)c1ccc(/C=C(\C#N)C(=O)OCCCCCNC(=O)c2cc3ccc(OC)cc3oc2=O)s1
[2]
  Drug uptake: Active
